Measurements taken from patent publication US20230263807A1, “TREPROSTINIL ILOPROST COMBINATION THERAPY” (United Therapeutics Corporation, priority 2022, published 2023).
Where two headings read alike, the source gives them in different places.

Procedure: The solubility of iloprost at 100 μg/mL was evaluated at five different pH levels by visual inspection and HPLC-UV analysis. A stock solution of Iloprost was prepared in ethanol at 1 mg/mL. The stock solution was diluted 10-fold in each buffer and mixed well. The buffered solutions were visually inspected for any precipitation. The buffered solutions were filtered with 0.45 μm nylon filters prior to analysis by HPLC.

Structure (SMILES): CC#CCC(C)[C@H](O)/C=C/[C@@H]1[C@H]2C/C(=C/CCCC(=O)O)C[C@H]2C[C@H]1O (stereo partly shown) [Iloprost]
- Final pH (100 μg/mL Iloprost in 10 mM Acetate, initial pH 5.00): 5.08
- Final pH (100 μg/mL Iloprost in 10 mM Citrate, initial pH 2.89): 2.99
- Final pH (100 μg/mL Iloprost in 10 mM Phosphate, initial pH 6.23): 6.36
- Final pH (100 μg/mL Iloprost in 10 mM Phosphate, initial pH 7.27): 7.42
- Final pH (100 μg/mL Iloprost in 10 mM Phosphate, initial pH 8.60): 8.59
- solubility by chromatographic analysis (pH 2.89): potential solubility issues below pH 6
- visual solubility (pH 2.89): No visual solubility issues
